pEC50: −log10 of the molar value. *1 amine or outer side, *2 acyl side, *3 side chain or, on linkers, in order; H or OH if unused. Where a SMILES comes first, the peptide text is derived from it. Side-chain parts run from the residue outwards. [ ]: non-standard residue; d: D form. The star is where a group is joined. C20 diacid = O=C(O)CCCCCCCCCCCCCCCCCCC(=O)*; γGlu = O=C(O)[C@H](CCC(=O)[*:2])N[*:1]; AEEA = NCCOCCOCC(=O)O; Aib = CC(C)(N)C(=O)O
Legend:
hGIPR = target: T1, hGIPR (Homo sapiens, UniProt P48546); assay: cAMP accumulation assay, hGIPR; assay type: cell-based
T1 sequence (P48546 22-466): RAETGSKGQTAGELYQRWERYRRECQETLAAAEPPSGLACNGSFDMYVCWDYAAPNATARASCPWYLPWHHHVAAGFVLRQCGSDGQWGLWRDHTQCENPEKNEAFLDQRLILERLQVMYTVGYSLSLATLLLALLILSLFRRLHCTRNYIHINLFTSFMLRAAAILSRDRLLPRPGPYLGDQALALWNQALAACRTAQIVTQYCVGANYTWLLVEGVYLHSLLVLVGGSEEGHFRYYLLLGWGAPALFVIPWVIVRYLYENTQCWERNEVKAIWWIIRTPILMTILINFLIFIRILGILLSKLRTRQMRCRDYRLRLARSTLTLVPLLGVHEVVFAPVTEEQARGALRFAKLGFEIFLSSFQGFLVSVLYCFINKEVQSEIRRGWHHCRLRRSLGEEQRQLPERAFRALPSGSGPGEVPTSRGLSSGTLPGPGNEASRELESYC
Description: On day 1, CHO-K1 cells were plated at 1.5 million cells per T75 flask in 90% F12-K media supplemented with 10% FBS. On day 3 cells were transfected with 40 mcg of each expression plasmid using Lipofectamine 2000 transfection reagent. On day 5, cells were dispensed at 1000 cells per well in white 384-well OptiPlates in 5 mcL of assay buffer consisting of 1×HBSS, 5 mM HEPES, 0.5 mM IBMX, and 0.1% casein.
Peptides were serially diluted 4-fold in assay buffer to final concentrations ranging from 1×10^−9 M to 9.5×10^−16 M. Two assay controls consisting of 50 mcM forskolin (cAMP system maximum) or assay buffer only (cAMP system minimum) were also prepared. Five microliters of each peptide-concentration, or assay control, was added to triplicate wells and incubated for thirty minutes at room temperature. […] Plates were read on an Envision fluorescent plate reader (PerkinElmer).
Test values were first normalized to the system maximum and system minimum averaged values in Excel using the formula: (test value−system min average)/(system max average -system min average)*100. […] Data from up to 3 replicate tests were analyzed for each peptide. […]

serum albumin = serum albumin (Homo sapiens, UniProt P02768); assay: Fraction unbound (fu) in plasma by surface plasmon resonance, human; assay type: in vitro ADME; settings: SPR binding to serum albumin
Chain of serum albumin (P02768 25-609): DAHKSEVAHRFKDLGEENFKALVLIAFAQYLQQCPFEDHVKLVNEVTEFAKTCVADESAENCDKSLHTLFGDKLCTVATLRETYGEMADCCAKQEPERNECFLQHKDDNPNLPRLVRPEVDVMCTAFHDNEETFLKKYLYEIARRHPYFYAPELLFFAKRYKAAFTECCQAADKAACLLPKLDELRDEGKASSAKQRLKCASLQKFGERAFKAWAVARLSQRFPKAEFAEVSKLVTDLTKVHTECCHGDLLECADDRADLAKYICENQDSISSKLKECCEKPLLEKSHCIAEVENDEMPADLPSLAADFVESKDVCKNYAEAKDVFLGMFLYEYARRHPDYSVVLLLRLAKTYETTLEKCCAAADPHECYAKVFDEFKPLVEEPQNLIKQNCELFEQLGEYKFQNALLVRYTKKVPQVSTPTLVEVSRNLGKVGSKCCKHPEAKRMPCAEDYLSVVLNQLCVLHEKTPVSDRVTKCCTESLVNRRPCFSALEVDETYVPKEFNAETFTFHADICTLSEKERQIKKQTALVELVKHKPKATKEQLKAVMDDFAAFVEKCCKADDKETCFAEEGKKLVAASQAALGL
Description: Conventional methods of measuring plasma protein binding, such as equilibrium dialysis, ultrafiltration and ultracentrifugation, are not reliable with peptides because of their tendency to adsorb to the surface of plastic tubing, dialysis membranes and molecular weight cut-off filters. As a result, the extent to which acylated peptides bind to serum albumin was evaluated using surface plasmon resonance (SPR).

[1] = Intravenous infusion pharmacokinetics in rats; assay type: in vivo; settings: rat, plasma, IV infusion 0.033 mg/kg, male Sprague-Dawley rats
Description: Peptides were dissolved in 0.05% Tween-20 in phosphate buffered saline and administered as a 1-hour intravenous infusion to non-fasted male Sprague-Dawley rats (n=3 per group) via femoral vein cannula at a final dose of 0.033 mg/kg. Formulations were administered at a rate of 1.67 mL/kg/h. Blood samples (approximately 250 μL) were collected for pharmacokinetic analysis via a jugular vein cannula at 0.25, 0.5, 0.75, 1, 1.17, 1.33, 1.5, 2, 4, 8, 24, 48, 72, and 96 hours post-start of infusion into microtainer tubes containing K2EDTA as anticoagulant and 25 μL of a protease inhibitor cocktail. Plasma was prepared by centrifugation and stored at −80° C. until analysis.
A 70 μL aliquot of each plasma sample was placed into to a 96-well plate. To each well was added 210 μL of 0.1% TFA in 2:1 ethanol:acetonitrile containing an appropriate internal standard. Plates were vortex mixed for 10 min at 1300 rpm, and then centrifuged for 10 min at 500× g. Supernatants (210 μL) were placed into a clean 96-well plate and evaporated under a nitrogen stream at 45° C. Residues were reconstituted in 80 μL of 20% acetonitrile (aq) containing 0.1% formic acid.
All calibration standards were prepared in control rat plasma containing K2EDTA and protease inhibitor cocktail.
Samples and standards were analyzed by electrospray ionization (ESI) UPLC-MS/MS using a system consisting of a CTC HTS PAL auto-injector (Leap, Carrboro, NC), an Agilent Infinity 1290 system with column oven (Palo Alto, CA), a Valco switching valve (Houston, TX), and a Sciex TripleTOF® 5600 mass spectrometer (Framingham, MA). Samples were injected onto a 2.1×50 mm reverse phase C18 analytical column, typically a Waters CORTECS UPLC C18+, 1.6 μm (Waters Corporation, Milford, MA) or similar. […] Initial conditions consisted of 95% A and 5% B. The organic component was increased to 95% B over a period of 3-4 minutes, depending on the peptide. Typical flow rates were 550 μL/min. The column temperature was held constant at 45° C. Peptides were quantified by monitoring one or more product ions produced from a multiply charged parent ion.

[2] = target: T2, human GLP-1 receptor (GLP-1R) (Homo sapiens, UniProt P43220); assay: cAMP accumulation assay, CHO-K1 cells stably expressing human GLP-1R; assay type: cell-based
T2 construct: expressed in transfected cells
T2 sequence (P43220 24-463): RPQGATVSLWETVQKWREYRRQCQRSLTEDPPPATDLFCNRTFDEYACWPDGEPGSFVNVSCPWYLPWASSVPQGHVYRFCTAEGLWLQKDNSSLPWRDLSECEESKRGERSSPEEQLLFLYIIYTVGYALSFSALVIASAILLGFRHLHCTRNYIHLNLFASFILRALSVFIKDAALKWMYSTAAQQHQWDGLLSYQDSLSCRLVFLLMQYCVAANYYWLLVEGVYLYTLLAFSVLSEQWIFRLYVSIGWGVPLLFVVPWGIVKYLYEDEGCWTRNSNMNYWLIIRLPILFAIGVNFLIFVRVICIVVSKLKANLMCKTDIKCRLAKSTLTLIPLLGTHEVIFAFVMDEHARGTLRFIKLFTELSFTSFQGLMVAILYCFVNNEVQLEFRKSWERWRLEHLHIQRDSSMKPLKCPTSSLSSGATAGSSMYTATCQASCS

With CC(C)C[C@H](NC(=O)[C@H](Cc1ccc(O)cc1)NC(=O)[C@H](CCCCN)NC(=O)[C@H](CO)NC(=O)[C@H](Cc1ccc(O)cc1)NC(=O)[C@H](CC(=O)O)NC(=O)[C@H](CO)NC(=O)[C@@H](NC(=O)[C@H](Cc1ccccc1)NC(=O)[C@@H](NC(=O)CNC(=O)[C@H](Cc1c[nH]cn1)NC(=O)[C@H](CO)NC(=O)[C@@H](N)Cc1ccc(O)cc1)[C@@H](C)O)[C@@H](C)O)C(=O)N[C@@H](CC(=O)O)C(=O)NC(C)(C)C(=O)N[C@@H](CCCCN)C(=O)N[C@@H](Cc1ccc(O)cc1)C(=O)N[C@@H](C)C(=O)N[C@@H](CCC(N)=O)C(=O)N[C@@H](CCCCNC(=O)CC[C@H](NC(=O)CC[C@H](NC(=O)COCCOCCNC(=O)CCCCCCCCCCCCCCCCCCC(=O)O)C(=O)O)C(=O)O)C(=O)N[C@@H](Cc1ccccc1)C(=O)N[C@H](C(=O)NC(C)(C)C(=O)N[C@@H](Cc1c[nH]c2ccccc12)C(=O)N[C@@H](CC(C)C)C(=O)N[C@@H](CCC(=O)O)C(=O)N[C@@H](CC(=O)O)C(=O)N[C@@H](CCC(=O)O)C(=O)N1CCC[C@H]1C(=O)N[C@@H](CO)C(=O)N[C@@H](CO)C(=O)NCC(=O)N[C@@H](C)C(=O)N1CCC[C@H]1C(=O)N1CCC[C@H]1C(=O)N1CCC[C@H]1C(=O)N[C@@H](CO)C(=O)O)C(C)C [Compound A6] (H-YSHGTFTSDYSKYLD[Aib]KYAQK([γGlu-γGlu-AEEA-C20 diacid])FV[Aib]WLEDEPSSGAPPPS-OH; N-terminus assumed) as the molecule, how does the pEC50 (hGIPR) read?
Its pEC50 is less than 9.00.

And the fraction unbound (serum albumin)?
The fraction unbound was 0.0072.

And the clearance ([1]; 1-hour)?
The clearance was 4.97 mL/h/kg.

And the half-life [1]?
The half-life was 13 h.

What about the Vd ([1]; read-out: Vss) of the same molecule?
Its Vd is 0.0867 L/kg.

And the pEC50 [2]?
The pEC50 was less than 7.00.

And the “Activity (as EC50 values) hGLP1R” value ([2]; human GLP-1 receptor, Table 11)?
The value was less than 7.
